Data reported in the kinase profiling compilation of Christmann-Franck et al. (2016).

Legend:
Assay in all cases: radiometric filter-binding kinase assay, Kinase HotSpot
Details in all cases: compound 0.5 µM; ATP 10 µM
RPS6KA5 KD2 (human) = RPS6KA5 KD2 (human) (UniProt O75582)
TAOK1 (human) = TAOK1 (human) (UniProt Q7L7X3)
[1] = system: PRKCQ (human), Q04759 [P330L]
SRPK3 (human) = SRPK3 (human) (UniProt Q9UPE1)
CDK6 CCND3 (human) = CDK6 CCND3 (human) (UniProt P30281+Q00534)
SLK (human) = SLK (human) (UniProt Q9H2G2)
SIK2 (human) = SIK2 (human) (UniProt Q9H0K1)
CAMK1 (human) = CAMK1 (human) (UniProt Q14012)
GRK5 (human) = GRK5 (human) (UniProt P34947)
CDK1 CCNA2 (human) = CDK1 CCNA2 (human) (UniProt P06493+P20248)
PLK3 (human) = PLK3 (human) (UniProt Q9H4B4)
PRKCI (human) = PRKCI (human) (UniProt P41743)
CDK4 CCND3 (human) = CDK4 CCND3 (human) (UniProt P30281+P11802)
NTRK2 (human) = NTRK2 (human) (UniProt Q16620)
TGFBR2 (human) = TGFBR2 (human) (UniProt P37173)
HIPK3 (human) = HIPK3 (human) (UniProt Q9H422)
CSNK1G3 (human) = CSNK1G3 (human) (UniProt Q9Y6M4)
MATK (human) = MATK (human) (UniProt P42679)
BTK (human) = BTK (human) (UniProt Q06187)
STK33 (human) = STK33 (human) (UniProt Q9BYT3)
CAMK1D (human) = CAMK1D (human) (UniProt Q8IU85)
PAK3 (human) = PAK3 (human) (UniProt O75914)
EPHA5 (human) = EPHA5 (human) (UniProt P54756)
IGF1R (human) = IGF1R (human) (UniProt P08069)
CSNK1G2 (human) = CSNK1G2 (human) (UniProt P78368)
PLK1 (human) = PLK1 (human) (UniProt P53350)
CDK9 CCNT1 (human) = CDK9 CCNT1 (human) (UniProt P50750+O60563)
TBK1 (human) = TBK1 (human) (UniProt Q9UHD2)
CDC42BPA (human) = CDC42BPA (human) (UniProt Q5VT25)
BRSK2 (human) = BRSK2 (human) (UniProt Q8IWQ3)
SYK (human) = SYK (human) (UniProt P43405)
STK17A (human) = STK17A (human) (UniProt Q9UEE5)
FGFR2 (human) = FGFR2 (human) (UniProt P21802)
PRKX (human) = PRKX (human) (UniProt P51817)
MAP3K14 (human) = MAP3K14 (human) (UniProt Q99558)
INSR (human) = INSR (human) (UniProt P06213)
ADRBK1 (human) = ADRBK1 (human) (UniProt P25098)
PKN1 (human) = PKN1 (human) (UniProt Q16512)
CDK1 CCNB1 (human) = CDK1 CCNB1 (human) (UniProt P06493+P14635)
HCK (human) = HCK (human) (UniProt P08631)

Chain of CDK4 CCND3 (human) (P11802 whole entry, looked up): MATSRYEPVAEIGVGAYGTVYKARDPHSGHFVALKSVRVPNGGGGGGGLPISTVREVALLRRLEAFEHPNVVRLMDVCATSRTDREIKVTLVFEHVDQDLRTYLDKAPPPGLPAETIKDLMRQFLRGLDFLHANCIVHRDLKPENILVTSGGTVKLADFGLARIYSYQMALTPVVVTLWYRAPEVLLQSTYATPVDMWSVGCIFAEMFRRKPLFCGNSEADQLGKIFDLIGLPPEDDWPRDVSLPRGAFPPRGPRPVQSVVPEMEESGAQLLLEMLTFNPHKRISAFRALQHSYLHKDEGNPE
Chain of CDK4 CCND3 (human) (P30281 whole entry, looked up): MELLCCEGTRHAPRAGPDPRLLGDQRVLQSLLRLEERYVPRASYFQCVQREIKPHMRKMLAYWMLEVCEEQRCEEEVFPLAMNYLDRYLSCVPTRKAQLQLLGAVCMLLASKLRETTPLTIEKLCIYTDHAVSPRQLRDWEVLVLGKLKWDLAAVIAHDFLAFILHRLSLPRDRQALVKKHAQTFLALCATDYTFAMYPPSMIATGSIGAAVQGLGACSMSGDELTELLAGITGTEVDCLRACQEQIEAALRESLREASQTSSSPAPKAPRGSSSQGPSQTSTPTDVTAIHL
Chain of SLK (human) (Q9H2G2 whole entry, looked up): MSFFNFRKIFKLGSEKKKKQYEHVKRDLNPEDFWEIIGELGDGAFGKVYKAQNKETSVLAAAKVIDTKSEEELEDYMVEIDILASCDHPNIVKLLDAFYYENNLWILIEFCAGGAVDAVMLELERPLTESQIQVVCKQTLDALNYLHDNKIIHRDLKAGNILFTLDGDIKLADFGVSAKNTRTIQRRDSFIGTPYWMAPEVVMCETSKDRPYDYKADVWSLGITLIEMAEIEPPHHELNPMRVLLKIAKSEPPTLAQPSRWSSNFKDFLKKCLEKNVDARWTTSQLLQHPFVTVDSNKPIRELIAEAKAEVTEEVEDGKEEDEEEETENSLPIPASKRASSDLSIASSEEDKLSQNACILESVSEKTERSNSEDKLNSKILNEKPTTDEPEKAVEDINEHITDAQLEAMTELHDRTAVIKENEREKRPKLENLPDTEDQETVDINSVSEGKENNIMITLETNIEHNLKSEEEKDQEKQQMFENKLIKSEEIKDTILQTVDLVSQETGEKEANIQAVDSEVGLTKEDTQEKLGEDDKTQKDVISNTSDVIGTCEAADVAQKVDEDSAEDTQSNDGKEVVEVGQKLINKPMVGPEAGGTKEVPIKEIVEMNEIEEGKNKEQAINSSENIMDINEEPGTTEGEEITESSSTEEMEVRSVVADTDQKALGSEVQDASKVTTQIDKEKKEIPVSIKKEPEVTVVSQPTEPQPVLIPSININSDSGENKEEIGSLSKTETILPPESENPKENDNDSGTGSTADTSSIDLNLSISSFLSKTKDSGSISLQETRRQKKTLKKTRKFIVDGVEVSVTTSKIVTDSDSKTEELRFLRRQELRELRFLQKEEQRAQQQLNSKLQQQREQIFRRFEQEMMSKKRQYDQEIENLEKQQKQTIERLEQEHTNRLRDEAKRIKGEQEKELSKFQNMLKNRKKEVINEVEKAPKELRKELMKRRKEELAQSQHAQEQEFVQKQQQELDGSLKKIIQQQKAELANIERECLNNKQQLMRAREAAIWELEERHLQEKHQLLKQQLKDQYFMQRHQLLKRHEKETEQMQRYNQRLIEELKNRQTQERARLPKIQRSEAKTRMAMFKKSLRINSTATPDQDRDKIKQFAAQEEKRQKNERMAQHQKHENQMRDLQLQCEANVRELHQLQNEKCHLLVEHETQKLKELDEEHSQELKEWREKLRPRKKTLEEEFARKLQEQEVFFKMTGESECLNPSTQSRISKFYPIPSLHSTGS
Chain of TAOK1 (human) (Q7L7X3 whole entry, looked up): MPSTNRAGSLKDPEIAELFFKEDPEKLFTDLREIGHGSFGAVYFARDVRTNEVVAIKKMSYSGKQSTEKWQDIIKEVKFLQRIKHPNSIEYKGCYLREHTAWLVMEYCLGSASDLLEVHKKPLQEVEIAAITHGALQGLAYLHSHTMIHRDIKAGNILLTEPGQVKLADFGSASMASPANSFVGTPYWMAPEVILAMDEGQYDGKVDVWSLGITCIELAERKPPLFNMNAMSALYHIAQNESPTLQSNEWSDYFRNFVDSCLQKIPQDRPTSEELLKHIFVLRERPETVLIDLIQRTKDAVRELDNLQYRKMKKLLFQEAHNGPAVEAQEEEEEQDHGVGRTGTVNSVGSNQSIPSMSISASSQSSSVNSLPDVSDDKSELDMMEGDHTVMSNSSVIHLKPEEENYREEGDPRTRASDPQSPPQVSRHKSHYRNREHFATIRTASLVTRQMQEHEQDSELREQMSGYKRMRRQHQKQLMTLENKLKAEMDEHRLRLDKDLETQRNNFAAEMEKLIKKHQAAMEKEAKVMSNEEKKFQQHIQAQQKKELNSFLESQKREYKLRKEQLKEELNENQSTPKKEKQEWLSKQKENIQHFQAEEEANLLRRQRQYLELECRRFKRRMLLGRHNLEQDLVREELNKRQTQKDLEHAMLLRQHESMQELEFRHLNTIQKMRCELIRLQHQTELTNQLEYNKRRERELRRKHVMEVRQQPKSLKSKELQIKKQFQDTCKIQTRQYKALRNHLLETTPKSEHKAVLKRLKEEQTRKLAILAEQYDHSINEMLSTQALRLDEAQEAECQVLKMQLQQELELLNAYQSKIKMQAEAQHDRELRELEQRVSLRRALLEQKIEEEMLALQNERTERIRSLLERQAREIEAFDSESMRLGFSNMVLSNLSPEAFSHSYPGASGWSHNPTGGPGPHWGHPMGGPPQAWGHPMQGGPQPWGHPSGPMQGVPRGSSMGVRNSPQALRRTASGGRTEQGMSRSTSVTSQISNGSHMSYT
Chain of FGFR2 (human) (P21802 whole entry, looked up): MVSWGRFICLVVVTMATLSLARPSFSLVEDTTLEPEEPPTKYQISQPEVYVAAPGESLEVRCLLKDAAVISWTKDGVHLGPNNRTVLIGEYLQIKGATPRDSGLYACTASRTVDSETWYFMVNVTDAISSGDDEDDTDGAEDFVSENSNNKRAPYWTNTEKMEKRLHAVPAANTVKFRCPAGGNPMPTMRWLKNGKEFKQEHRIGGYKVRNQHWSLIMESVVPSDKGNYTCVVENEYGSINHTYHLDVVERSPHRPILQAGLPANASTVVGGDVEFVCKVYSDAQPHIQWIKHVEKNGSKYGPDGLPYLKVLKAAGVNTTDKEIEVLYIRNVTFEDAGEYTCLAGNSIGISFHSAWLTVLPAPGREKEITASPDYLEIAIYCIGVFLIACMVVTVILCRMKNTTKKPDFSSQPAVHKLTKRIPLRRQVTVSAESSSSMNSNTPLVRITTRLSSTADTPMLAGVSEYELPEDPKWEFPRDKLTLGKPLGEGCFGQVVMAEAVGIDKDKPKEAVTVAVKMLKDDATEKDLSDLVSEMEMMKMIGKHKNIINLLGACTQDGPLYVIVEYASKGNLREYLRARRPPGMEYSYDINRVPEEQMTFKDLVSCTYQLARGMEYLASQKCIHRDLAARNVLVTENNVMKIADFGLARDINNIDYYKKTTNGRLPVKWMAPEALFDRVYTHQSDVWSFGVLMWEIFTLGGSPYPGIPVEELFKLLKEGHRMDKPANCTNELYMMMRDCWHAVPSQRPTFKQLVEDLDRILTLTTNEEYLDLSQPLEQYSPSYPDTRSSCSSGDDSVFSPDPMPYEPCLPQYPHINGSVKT
Chain of MAP3K14 (human) (Q99558 whole entry, looked up): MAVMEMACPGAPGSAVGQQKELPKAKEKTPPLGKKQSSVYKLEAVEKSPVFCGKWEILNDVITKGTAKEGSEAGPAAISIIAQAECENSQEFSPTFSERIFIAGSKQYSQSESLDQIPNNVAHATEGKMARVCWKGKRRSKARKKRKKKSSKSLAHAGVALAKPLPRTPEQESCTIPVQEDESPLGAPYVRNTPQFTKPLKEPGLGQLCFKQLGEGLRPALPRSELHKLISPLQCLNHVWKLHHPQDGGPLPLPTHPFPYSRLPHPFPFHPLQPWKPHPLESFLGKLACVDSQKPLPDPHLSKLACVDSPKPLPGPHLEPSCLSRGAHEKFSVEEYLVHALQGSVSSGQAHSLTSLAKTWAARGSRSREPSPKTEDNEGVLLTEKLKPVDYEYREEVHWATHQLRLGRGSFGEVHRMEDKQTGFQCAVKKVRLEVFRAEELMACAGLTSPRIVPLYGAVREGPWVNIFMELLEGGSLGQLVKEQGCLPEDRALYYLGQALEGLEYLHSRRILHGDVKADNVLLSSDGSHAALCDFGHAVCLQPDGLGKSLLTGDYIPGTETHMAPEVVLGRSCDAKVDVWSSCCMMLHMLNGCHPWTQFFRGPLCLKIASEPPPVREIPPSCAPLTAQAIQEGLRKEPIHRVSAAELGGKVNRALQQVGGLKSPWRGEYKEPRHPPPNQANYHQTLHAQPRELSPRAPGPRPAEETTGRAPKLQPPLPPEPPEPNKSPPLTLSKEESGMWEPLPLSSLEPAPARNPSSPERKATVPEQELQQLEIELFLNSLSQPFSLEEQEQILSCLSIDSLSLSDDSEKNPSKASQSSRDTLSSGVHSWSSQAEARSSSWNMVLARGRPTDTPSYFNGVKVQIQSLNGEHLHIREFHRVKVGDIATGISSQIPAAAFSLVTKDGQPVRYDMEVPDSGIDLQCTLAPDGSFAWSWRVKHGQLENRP
Chain of CSNK1G3 (human) (Q9Y6M4 whole entry, looked up): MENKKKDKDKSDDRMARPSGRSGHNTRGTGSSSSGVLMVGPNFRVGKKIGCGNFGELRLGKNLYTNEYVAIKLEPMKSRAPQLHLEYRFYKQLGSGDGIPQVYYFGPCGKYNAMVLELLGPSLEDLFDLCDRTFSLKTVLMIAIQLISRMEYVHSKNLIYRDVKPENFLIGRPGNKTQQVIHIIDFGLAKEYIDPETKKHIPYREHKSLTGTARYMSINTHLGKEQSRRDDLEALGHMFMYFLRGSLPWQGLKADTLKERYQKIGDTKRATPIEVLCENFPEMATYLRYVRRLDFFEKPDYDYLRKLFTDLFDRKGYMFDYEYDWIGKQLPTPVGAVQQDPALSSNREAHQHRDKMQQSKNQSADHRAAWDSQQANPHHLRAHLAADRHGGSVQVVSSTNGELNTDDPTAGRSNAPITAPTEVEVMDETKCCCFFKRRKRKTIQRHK

Compound: NC(=O)c1cccc(-c2cc(Nc3ccc(OC(F)(F)F)cc3)ncn2)c1
- residual activity (RPS6KA5 KD2 (human)): 104%
- residual activity (TAOK1 (human)): 92.9%
- residual activity [1]: 104%
- residual activity (SRPK3 (human)): 94.3%
- residual activity (CDK6 CCND3 (human)): 96.2%
- residual activity (SLK (human)): 98.2%
- residual activity (SIK2 (human)): 108%
- residual activity (CAMK1 (human)): 97.5%
- residual activity (GRK5 (human)): 109%
- residual activity (CDK1 CCNA2 (human)): 103%
- residual activity (PLK3 (human)): 96.9%
- residual activity (PRKCI (human)): 99.6%
- residual activity (CDK4 CCND3 (human)): 98.4%
- residual activity (NTRK2 (human)): 96%
- residual activity (TGFBR2 (human)): 94.9%
- residual activity (HIPK3 (human)): 104%
- residual activity (CSNK1G3 (human)): 93.4%
- residual activity (MATK (human)): 100%
- residual activity (BTK (human)): 99.1%
- residual activity (STK33 (human)): 92.1%
- residual activity (CAMK1D (human)): 105%
- residual activity (PAK3 (human)): 100%
- residual activity (EPHA5 (human)): 103%
- residual activity (IGF1R (human)): 91%
- residual activity (CSNK1G2 (human)): 89.5%
- residual activity (PLK1 (human)): 97.7%
- residual activity (CDK9 CCNT1 (human)): 82.2%
- residual activity (TBK1 (human)): 92.4%
- residual activity (CDC42BPA (human)): 99.3%
- residual activity (BRSK2 (human)): 93%
- residual activity (SYK (human)): 99.9%
- residual activity (STK17A (human)): 98.7%
- residual activity (FGFR2 (human)): 95.9%
- residual activity (PRKX (human)): 105%
- residual activity (MAP3K14 (human)): 103%
- residual activity (INSR (human)): 105%
- residual activity (ADRBK1 (human)): 96.1%
- residual activity (PKN1 (human)): 98.9%
- residual activity (CDK1 CCNB1 (human)): 92.5%
- residual activity (HCK (human)): 92.9%
